# Patent US10385022B2, “3-amino-pyridines as GPBAR1 agonists” (HOFFMANN-LA ROCHE INC., priority 2011, dated 2019)
# Target: human GPBAR1 receptor (Homo sapiens (Human), UniProt Q8TDU6)
# Experiment: functional cAMP assay in CHO-dhfr(minus) cells expressing human GPBAR1 receptors
# Type: cell-based
# Settings: CHO-dhfr(minus) cells expressing human GPBAR1, 30 min at 30° C.
# Method in brief: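 CHO-dhfr- cells were transfected with human GPBAR1, and a clone was chosen by cAMP response to lithocholic acid. EC50 values come from the cAMP read-out; specificity was checked in non-transfected CHO cells.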
# Chain of human GPBAR1 receptor (Q8TDU6 whole entry): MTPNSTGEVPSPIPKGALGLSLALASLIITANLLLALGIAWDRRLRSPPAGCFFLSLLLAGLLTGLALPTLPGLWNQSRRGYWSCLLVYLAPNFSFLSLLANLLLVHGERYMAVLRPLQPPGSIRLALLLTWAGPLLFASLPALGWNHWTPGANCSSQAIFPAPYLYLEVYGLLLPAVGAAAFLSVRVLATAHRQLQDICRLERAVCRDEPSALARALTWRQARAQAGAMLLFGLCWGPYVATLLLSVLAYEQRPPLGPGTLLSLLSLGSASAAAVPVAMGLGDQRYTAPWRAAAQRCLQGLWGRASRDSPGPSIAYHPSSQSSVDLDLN
row,EC50,Compound
1,0.034 µM,"CN(C(=O)c1cc(C(F)(F)F)cc(S(C)(=O)=O)c1)c1cnccc1-c1ccccc1OC(F)(F)F [Example 274, 3-Methanesulfonyl-N-methyl-N-[4-(2-trifluoromethoxy-phenyl)-pyridin-3-yl]-5-trifluoromethyl-benzamide]"
2,0.034 µM,"CN(C(=O)c1cc(Br)cc(C(F)(F)F)c1)c1cnccc1-c1ccccc1Cl [Example 74, 3-Bromo-N-[4-(2-chloro-phenyl)-pyridin-3-yl]-N-methyl-5-trifluoromethyl-benzamide]"
3,0.267 µM,"COc1cc(F)ccc1-c1cc(Cl)ncc1N(C)C(=O)c1cc(C(F)(F)F)cc(S(C)(=O)=O)c1 [Example 201, N-[6-Chloro-4-(4-fluoro-2-methoxy-phenyl)-pyridin-3-yl]-3-methanesulfonyl-N-methyl-5-trifluoromethyl-benzamide]"
4,0.019 µM,"Cc1ccccc1-c1ccncc1N(C)C(=O)c1cc(C(F)(F)F)nc(C(F)(F)F)c1 [Example 131, N-Methyl-N-(4-o-tolyl-pyridin-3-yl)-2,6-bis-trifluoromethyl-isonicotinamide]"
5,0.012 µM,"COc1cc(F)ccc1-c1ccncc1N(C)C(=O)c1cc(C(F)(F)F)cc(S(=O)(=O)N(C)C)c1 [Example 143, 3-Dimethylsulfamoyl-N-[4-(4-fluoro-2-methoxy-phenyl)-pyridin-3-yl]-N-methyl-5-trifluoromethyl-benzamide]"
6,2.95 µM,"COc1ncccc1-c1ccncc1N(CC(N)=O)C(=O)c1cc(C(F)(F)F)cc(S(C)(=O)=O)c1 [Example 181, N-Carbamoylmethyl-3-methanesulfonyl-N-(2-methoxy-[3,4′]bipyridinyl-3′-yl)-5-trifluoromethyl-benzamide]"
7,0.236 µM,"COc1ccc(C(=O)N(C)c2cnccc2-c2ccccc2C)cc1C(F)(F)F [Example 92, 4-Methoxy-N-methyl-N-(4-o-tolyl-pyridin-3-yl)-3-trifluoromethyl-benzamide]"
8,0.34 µM,"Cc1ccccc1-c1cc(C#N)ncc1N(C)C(=O)c1cc(C(F)(F)F)cc(C(F)(F)F)c1 [Example 19, N-(6-Cyano-4-o-tolyl-pyridin-3-yl)-N-methyl-3,5-bis-trifluoromethyl-benzamide]"
9,0.049 µM,"COC(=O)CN(C(=O)c1cc(C(F)(F)F)cc(S(=O)(=O)N(C)C)c1)c1cnccc1-c1cccnc1OC [Example 178, Methyl 2-(3-(N,N-dimethylsulfamoyl)-N-(2-methoxy-3,4′-bipyridin-3′-yl)-5-(trifluoromethyl)benzamido)acetate]"
10,0.197 µM,"COC(=O)CN(C(=O)c1cc(C(F)(F)F)cc(S(C)(=O)=O)c1)c1cnccc1-c1cccnc1OC [Example 180, [(3-Methanesulfonyl-5-trifluoromethyl-benzoyl)-(2-methoxy-[3,4′]bipyridinyl-3′-yl)-amino]-acetic acid methyl ester]"
11,0.101 µM,"COc1cc(F)ccc1-c1ccncc1N(CCS(C)(=O)=O)C(=O)c1cc(C(F)(F)F)nc(C(F)(F)F)c1 [Example 162, N-[4-(4-Fluoro-2-methoxy-phenyl)-pyridin-3-yl]-N-(2-methanesulfonyl-ethyl)-2,6-bis-trifluoromethyl-isonicotinamide]"
12,0.574 µM,"COc1cc(F)ccc1-c1ccncc1N(C)C(=O)c1cc(CCC(N)=O)cc(C(F)(F)F)c1 [Example 281, 3-(2-Carbamoyl-ethyl)-N-[4-(4-fluoro-2-methoxy-phenyl)-pyridin-3-yl]-N-methyl-5-trifluoromethyl-benzamide]"
13,0.069 µM,"COc1cc(F)ccc1-c1ccncc1N(C)C(=O)c1cc(C(F)(F)F)cc(S(=O)(=O)C2CN(S(C)(=O)=O)C2)c1 [Example 282, N-[4-(4-Fluoro-2-methoxy-phenyl)-pyridin-3-yl]-3-(1-methanesulfonyl-azetidine-3-sulfonyl)-N-methyl-5-trifluoromethyl-benzamide]"
14,0.036 µM,"COc1ncccc1-c1ccncc1N(CC(F)F)C(=O)c1cc(C(F)(F)F)nc(C(F)(F)F)c1 [Example 156, N-(2,2-Difluoro-ethyl)-N-(2-methoxy-[3,4′]bipyridinyl-3′-yl)-2,6-bis-trifluoromethyl-isonicotinamide]"
15,1.98 µM,"CCc1cc(-c2ccccc2C)c(N(C)C(=O)c2cc(C(F)(F)F)cc(C(F)(F)F)c2)cn1 [Example 220, N-(6-Ethyl-4-o-tolyl-pyridin-3-yl)-N-methyl-3,5-bis-trifluoromethyl-benzamide]"
16,0.153 µM,"COc1cc(F)ccc1-c1ccncc1N(C)C(=O)c1cc(C2CC2)cc(S(C)(=O)=O)c1 [Example 260, 3-Cyclopropyl-N-[4-(4-fluoro-2-methoxy-phenyl)-pyridin-3-yl]-5-methanesulfonyl-N-methyl-benzamide]"
17,0.022 µM,"COc1cc(F)c(F)cc1-c1ccncc1N(C)C(=O)c1cc(C(F)(F)F)nc(C(F)(F)F)c1 [Example 144, N-[4-(4,5-Difluoro-2-methoxy-phenyl)-pyridin-3-yl]-N-methyl-2,6-bis-trifluoromethyl-isonicotinamide]"
18,0.127 µM,"Cc1cc(C)cc(C(=O)N(C)c2cnccc2-c2ccccc2C)c1 [Example 96, 3,5,N-Trimethyl-N-(4-o-tolyl-pyridin-3-yl)-benzamide]"
19,0.924 µM,"CC(C)Oc1ncccc1-c1ccncc1N(C)C(=O)c1cc(C(F)(F)F)cc(C(F)(F)F)c1 [Example 46, N-(2-Isopropoxy-[3,4′]bipyridinyl-3′-yl)-N-methyl-3,5-bis-trifluoromethyl-benzamide]"
20,0.337 µM,"COc1cccc(-c2ccncc2N(C)C(=O)c2cc(C(F)(F)F)cc(C(F)(F)F)c2)c1F [Example 62, N-[4-(2-Fluoro-3-methoxy-phenyl)-pyridin-3-yl]-N-methyl-3,5-bis-trifluoromethyl-benzamide]"
21,1.83 µM,"CN(C(=O)c1cc(C(F)(F)F)cc(C(F)(F)F)c1)c1cnc(Cl)cc1-c1ncccc1Cl [Example 73, N-(3,6′-Dichloro-[2,4′]bipyridinyl-3′-yl)-N-methyl-3,5-bis-trifluoromethyl-benzamide]"
22,0.015 µM,"Cc1ccccc1-c1ccncc1N(C)C(=O)c1cc([N+](=O)[O-])cc(C(F)(F)F)c1 [Example 184, N-Methyl-3-nitro-N-(4-o-tolylpyridin-3-yl)-5-(trifluoromethyl)benzamide]"
23,0.863 µM,"CN(C(=O)c1cc(C(F)(F)F)cc(C(F)(F)F)c1)c1cnccc1-c1ccccc1C(F)(F)F [Example 28, N-Methyl-3,5-bis-trifluoromethyl-N-[4-(2-trifluoromethyl-phenyl)-pyridin-3-yl]-benzamide]"
24,0.379 µM,"CS(=O)(=O)c1cc(C(=O)N(CC#N)c2cnccc2-c2ccccc2Cl)cc(C(F)(F)F)c1 [Example 286, N-[4-(2-Chloro-phenyl)-pyridin-3-yl]-N-cyanomethyl-3-methanesulfonyl-5-trifluoromethyl-benzamide]"
25,0.539 µM,"CS(=O)(=O)c1cc(C(=O)N(CC(F)(F)F)c2cnccc2-c2ccccc2Cl)cc(C(F)(F)F)c1 [Example 287, N-[4-(2-Chloro-phenyl)-pyridin-3-yl]-3-methanesulfonyl-N-(2,2,2-trifluoro-ethyl)-5-trifluoromethyl-benzamide]"
26,1.64 µM,"Cc1ccccc1-c1ccncc1N(C)C(=O)c1cc(F)c(F)c(F)c1 [Example 104, 3,4,5-Trifluoro-N-methyl-N-(4-o-tolyl-pyridin-3-yl)-benzamide]"
